Test results as given in patent publication US20230406859A1, “METHOTREXATE ANALOGS AND METHODS OF USE” (The United States of America, as represented by the …, priority 2020, published 2023).
Like-named read-outs stand apart in the source and are kept apart here.

How the values were obtained:
DHFR [1] = target: T1, DHFR (Homo sapiens, UniProt P00374); type: cell-based; settings: HBL1 cells, Western blot
T1 construct: Western blot detection of DHFR levels after treatment of HBL1 cells for 16 h; endogenous in cells; host or cells: HBL1 lymphoma cell line
T1 sequence (P00374 1-187): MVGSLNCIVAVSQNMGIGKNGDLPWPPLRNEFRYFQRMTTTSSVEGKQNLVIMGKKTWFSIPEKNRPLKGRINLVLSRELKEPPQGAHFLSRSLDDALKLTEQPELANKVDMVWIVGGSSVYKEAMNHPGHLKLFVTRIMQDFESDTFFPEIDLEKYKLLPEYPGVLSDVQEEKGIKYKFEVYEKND
Excerpt: Human embryonic kidney HEK293T cells and immortalized fibroblasts were maintained in DMEM (Gibco) supplemented with 10% fetal bovine serum (Hyclone), 2 mmol/L L-glutamine, Hepes (Gibco), and 100 U/mL penicillin/streptomycin (Invitrogen). The lymphoma cell line HBL1 was maintained in RPMI (Life Technology) supplemented with 5% fetal bovine serum (Hyclone), 2 mmol/L 1-glutamine, Hepes (Gibco), and 100 U/mL penicillin/streptomycin (Invitrogen).
Western blotting: Cells at confluence from 12-well plate treatments were washed with PBS and lysed in 75 μL/well NP40 lysis buffer (Cell Signaling), subjected to agitation and centrifugation. Approximately 100 μg of total protein was used per analysis. […] Blots were first incubated with 1:2000 dilution of anti-human DHFR antibody (Abcam, ab124814, host rabbit) for 16 h at 4° C. with shaking, washed 3× with TBS-T and incubated with 1:2000 dilution of anti-human β-actin primary antibody (Cell Signaling, host mouse) for 1 h at ambient temperature with shaking. Blots were then washed 3× with TBS-T and incubated with 1:5000 HRP secondary antibody (Novex, anti-Rabbit IgG raised in Goat, 1 mg/ml) for 1 h at ambient temperature, then washed with 3×TBS-T and developed with Pierce ECL Dura reagent for 5 min. Immunoreactive bands were imaged on a ChemiDoc Imaging System (Bio-Rad) with 20 s chemiluminescence exposure. The molecular weight marker ladder was imaged with colorimetric auto-exposure, and both images merged.

HBL1 cell line = test: CellTiter-Glo cell viability (cytotox), HBL1 cell line, 72 hours; type: cell-based; settings: HBL1 cell line, CellTiter-Glo; unit inferred
Experimental: (§1) CellTiter-Glo viability assays: Five μL of cells (2500 cells) from the 12-well plate culture were plated into white 1536-well plates (Greiner, Monroe, NC, 789173-F) in 6 replicates. CellTiter-Glo Luminescent Cell Viability Assay (CTG) (Promega, G7572), 2.5 μL/well reagent was added with a BioRAPTR FRD (Beckman Coulter, Sykesville, MD), plates were incubated in the dark at ambient temperature for 10 min, and luminescence measured with a ViewLux 1430 Ultra HTS (Perkin Elmer, Waltham, MA).

DHFR [2] = target: T1, DHFR; test: Western blot detection of DHFR levels in fibroblasts; type: cell-based; settings: 16 h at 1 μM
Experimental: (§2) Cell Culture Methods: Cells (HBL1, immortalized fibroblasts from a healthy donor, or 293T) were seeded at the numbers indicated in a 12-well plate in 500 ul. […] Human embryonic kidney HEK293T cells and immortalized fibroblasts were maintained in DMEM (Gibco) supplemented with 10% fetal bovine serum (Hyclone), 2 mmol/L L-glutamine, Hepes (Gibco), and 100 U/mL penicillin/streptomycin (Invitrogen). The lymphoma cell line HBL1 was maintained in RPMI (Life Technology) supplemented with 5% fetal bovine serum (Hyclone), 2 mmol/L 1-glutamine, Hepes (Gibco), and 100 U/mL penicillin/streptomycin (Invitrogen). Cells were cultured in incubators maintained at 37° C., with 5% CO2 and 85% humidity.
Western blotting: Cells at confluence from 12-well plate treatments were washed with PBS and lysed in 75 μL/well NP40 lysis buffer (Cell Signaling), subjected to agitation and centrifugation. Approximately 100 μg of total protein was used per analysis. Proteins were sized on a NuPAGE 12% Bis-Tris Gel, 1.0 mm×10 wells, proteins transferred to 0.2 μm nitrocellulose membrane for 60 min followed by blocking with 5% t milk in TBS-T for 1 h at ambient temperature with gentle shaking. […]

293T cells = test: CellTiter-Glo ATP levels in 293T cells; type: cell-based, human; settings: 293T cells, CellTiter-Glo
Experimental: as §2
as §1, with “Cell-Titer-Glo viability” for “CellTiter-Glo viability”

fibroblasts = test: CellTiter-Glo ATP levels in fibroblasts; type: cell-based; settings: fibroblasts, CellTiter-Glo
Experimental: as §2
as §1, with “Cell-Titer-Glo viability” for “CellTiter-Glo viability”

Row | Structure (SMILES) | effect on DHFR protein levels (DHFR [1]) | IC50 (HBL1 cell line) [µM] | effect on DHFR protein levels (DHFR [2]) | effect on ATP levels (293T cells) | effect on ATP levels (fibroblasts)
1 | Cc1ncsc1-c1ccc(CNC(=O)C2C[C@@H](O)CN2C(=O)C(NC(=O)COCCOCCOCCOCCNC(=O)CC[C@H](NC(=O)c2ccc(N(C)Cc3cnc4nc(N)nc(N)c4n3)cc2)C(=O)O)C(C)(C)C)cc1 (stereo partly drawn) [NCGC00685964, (23S)-23-(4-(((2,4-diaminopteridin-6-yl)methyl)(methyl)amino)benzamido)-3-((4R)-4-hydroxy-2-((4-(4-methylthiazol-5-yl)benzyl)carbamoyl)pyrrolidine-1-carbonyl)-2,2-dimethyl-5,20-dioxo-7,10,13,16-tetraoxa-4,19-diazatetracosan-24-oic acid] | no alterations in DHFR protein levels | 21.5 |  |  | 
2 | Cc1ncsc1-c1ccc(CNC(=O)C2C[C@@H](O)CN2C(=O)C(NC(=O)COCCOCCNC(=O)CC[C@H](NC(=O)c2ccc(N(C)Cc3cnc4nc(N)nc(N)c4n3)cc2)C(=O)O)C(C)(C)C)cc1 (stereo partly drawn) [NCGC00685995, (17S)-17-(4-(((2,4-diaminopteridin-6-yl)methyl)(methyl)amino)benzamido)-3-((4R)-4-hydroxy-2-((4-(4-methylthiazol-5-yl)benzyl)carbamoyl)pyrrolidine-1-carbonyl)-2,2-dimethyl-5,14-dioxo-7,10-dioxa-4,13-diazaoctadecan-18-oic acid] | no alterations in DHFR protein levels | 20.2 | MTX-like stabilization of DHFR | not observed | not observed
